Measured values: the supplement of paper PMC10307832

Legend:
Experiment in all cases: relative viability (nuclei count vs DMSO), 5 days (fraction); higher = more cells survive
A549 = tested on: A549
Method in brief: (§1)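 Relative viability equals treated-well nuclei counts divided by vehicle-well nuclei counts. Counts came from 4× images of lung cancer cell lines grown in 1536-well plates for 5 days after pin-tool dosing on the day after seeding. Dosing used one drug alone or a fixed anchor-drug dose plus five library-drug doses (not always all listed) in √10 steps, and values are medians of duplicate plates.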

HCC-44 = tested on: HCC-44
Method in brief: as §1

Calu-6 = tested on: Calu-6
Method in brief: as §1

NCI-H1703 = tested on: NCI-H1703
Method in brief: as §1

NCI-H1437 = tested on: NCI-H1437
Method in brief: as §1

NCI-H1299 = tested on: NCI-H1299
Method in brief: as §1

EBC-1 = tested on: EBC-1
Method in brief: as §1

IA-LM = tested on: IA-LM
Method in brief: as §1

HCC-366 = tested on: HCC-366
Method in brief: as §1

In the case of `CC1(C)CCC(c2ccc(Cl)cc2)=C(CN2CCN(c3ccc(C(=O)NS(=O)(=O)c4ccc(N[C@H](CCN5CCOCC5)CSc5ccccc5)c(S(=O)(=O)C(F)(F)F)c4)cc3)CC2)C1` [Navitoclax] + Cc1nc(NC(=O)N2CCC[C@H]2C(N)=O)sc1-c1ccnc(C(C)(C)C(F)(F)F)c1 [Alpelisib] (partner 2 µM), the relative viability (A549; first compound 0.005 µM) is reported as 0.774, the relative viability (A549; first compound 0.01581 µM) is reported as 0.932 and the relative viability (A549; first compound 0.05 µM) is reported as 0.922. It also gave a relative viability (A549; first compound 0.1581 µM) of 0.803, a relative viability (A549; first compound 0.5 µM) of 0.778 and a relative viability (HCC-44; first compound 0.005 µM) of 0.736. It also gave a relative viability (HCC-44; first compound 0.01581 µM) of 0.805, a relative viability (HCC-44; first compound 0.05 µM) of 0.849 and a relative viability (HCC-44; first compound 0.1581 µM) of 0.795. It also gave a relative viability (HCC-44; first compound 0.5 µM) of 0.694, a relative viability (Calu-6; first compound 0.005 µM) of 0.973 and a relative viability (Calu-6; first compound 0.01581 µM) of 1.08. The relative viability (Calu-6; first compound 0.05 µM) was 0.943, the relative viability (Calu-6; first compound 0.1581 µM) was 0.875 and the relative viability (Calu-6; first compound 0.5 µM) was 0.938. The relative viability (NCI-H1703; first compound 0.005 µM) was 0.308, the relative viability (NCI-H1703; first compound 0.01581 µM) was 0.406 and the relative viability (NCI-H1703; first compound 0.05 µM) was 0.425. The relative viability (NCI-H1703; first compound 0.1581 µM) was 0.457, the relative viability (NCI-H1703; first compound 0.5 µM) was 0.336 and the relative viability (NCI-H1437; first compound 0.005 µM) was 0.885. The relative viability (NCI-H1437; first compound 0.01581 µM) was 1.04, the relative viability (NCI-H1437; first compound 0.05 µM) was 0.98 and the relative viability (NCI-H1437; first compound 0.1581 µM) was 1.05. For the same compound, the relative viability (NCI-H1437; first compound 0.5 µM) was 0.871, the relative viability (NCI-H1299; first compound 0.005 µM) was 1.01 and the relative viability (NCI-H1299; first compound 0.01581 µM) was 1.09. For the same compound, the relative viability (NCI-H1299; first compound 0.05 µM) was 1.11, the relative viability (NCI-H1299; first compound 0.1581 µM) was 1.06 and the relative viability (NCI-H1299; first compound 0.5 µM) was 1.03. For the same compound, the relative viability (EBC-1; first compound 0.005 µM) was 0.781, the relative viability (EBC-1; first compound 0.01581 µM) was 1.13 and the relative viability (EBC-1; first compound 0.05 µM) was 0.928. For the same compound, the relative viability (EBC-1; first compound 0.1581 µM) was 0.829, the relative viability (EBC-1; first compound 0.5 µM) was 0.592 and the relative viability (IA-LM; first compound 0.005 µM) was 0.69. For the same compound, the relative viability (IA-LM; first compound 0.01581 µM) was 0.986, the relative viability (IA-LM; first compound 0.05 µM) was 0.737 and the relative viability (IA-LM; first compound 0.1581 µM) was 0.792. It also gave a relative viability (IA-LM; first compound 0.5 µM) of 0.833, a relative viability (HCC-366; first compound 0.005 µM) of 0.391 and a relative viability (HCC-366; first compound 0.01581 µM) of 0.588. For the same compound, the relative viability (HCC-366; first compound 0.05 µM) was 0.132, the relative viability (HCC-366; first compound 0.1581 µM) was 0.338 and the relative viability (HCC-366; first compound 0.5 µM) was 0.361.
Compound `Oc1nc(-c2ccc(C(F)(F)F)cc2)nc2c1CSCC2` [XAV939] + CS(=O)(=O)CCNCc1ccc(-c2ccc3ncnc(Nc4ccc(OCc5cccc(F)c5)c(Cl)c4)c3c2)o1 [Lapatinib] (partner 2 µM) has a relative viability (A549; first compound 0.08 µM) of 1.1, a relative viability (A549; first compound 0.253 µM) of 0.985 and a relative viability (A549; first compound 0.8 µM) of 0.897. For the same compound, the relative viability (A549; first compound 2.53 µM) was 0.765, the relative viability (HCC-44; first compound 0.08 µM) was 1.01 and the relative viability (HCC-44; first compound 0.253 µM) was 0.816. The relative viability (HCC-44; first compound 0.8 µM) was 0.955, the relative viability (HCC-44; first compound 2.53 µM) was 0.928 and the relative viability (Calu-6; first compound 0.08 µM) was 1.08. For the same compound, the relative viability (Calu-6; first compound 0.253 µM) was 0.945, the relative viability (Calu-6; first compound 0.8 µM) was 0.991 and the relative viability (Calu-6; first compound 2.53 µM) was 0.903. For the same compound, the relative viability (NCI-H1703; first compound 0.08 µM) was 1.21, the relative viability (NCI-H1703; first compound 0.253 µM) was 1.08 and the relative viability (NCI-H1703; first compound 0.8 µM) was 1.15. It also gave a relative viability (NCI-H1703; first compound 2.53 µM) of 0.959, a relative viability (NCI-H1437; first compound 0.08 µM) of 0.938 and a relative viability (NCI-H1437; first compound 0.253 µM) of 0.709. The relative viability (NCI-H1437; first compound 0.8 µM) was 0.772, the relative viability (NCI-H1437; first compound 2.53 µM) was 0.639 and the relative viability (NCI-H1299; first compound 0.08 µM) was 0.989. The relative viability (NCI-H1299; first compound 0.253 µM) was 1.01, the relative viability (NCI-H1299; first compound 0.8 µM) was 0.962 and the relative viability (NCI-H1299; first compound 2.53 µM) was 0.97. It also gave a relative viability (EBC-1; first compound 0.08 µM) of 0.206, a relative viability (EBC-1; first compound 0.253 µM) of 0.205 and a relative viability (EBC-1; first compound 0.8 µM) of 0.218. For the same compound, the relative viability (EBC-1; first compound 2.53 µM) was 0.209, the relative viability (IA-LM; first compound 0.08 µM) was 0.901 and the relative viability (IA-LM; first compound 0.253 µM) was 0.64. For the same compound, the relative viability (IA-LM; first compound 0.8 µM) was 0.687, the relative viability (IA-LM; first compound 2.53 µM) was 0.483 and the relative viability (HCC-366; first compound 0.08 µM) was 1.23. It also gave a relative viability (HCC-366; first compound 0.253 µM) of 0.861, a relative viability (HCC-366; first compound 0.8 µM) of 1.01 and a relative viability (HCC-366; first compound 2.53 µM) of 0.96.
In the case of `Oc1nc(-c2ccc(C(F)(F)F)cc2)nc2c1CSCC2` [XAV939] + CS(=O)(=O)N1CCN(Cc2cc3nc(-c4cccc5[nH]ncc45)nc(N4CCOCC4)c3s2)CC1 [Pictilisib] (partner 1 µM), the relative viability (A549; first compound 0.08 µM) is reported as 0.629, the relative viability (A549; first compound 0.253 µM) is reported as 0.491 and the relative viability (A549; first compound 0.8 µM) is reported as 0.372. It also gave a relative viability (A549; first compound 2.53 µM) of 0.296, a relative viability (HCC-44; first compound 0.08 µM) of 0.748 and a relative viability (HCC-44; first compound 0.253 µM) of 0.627. It also gave a relative viability (HCC-44; first compound 0.8 µM) of 0.577, a relative viability (HCC-44; first compound 2.53 µM) of 0.636 and a relative viability (Calu-6; first compound 0.08 µM) of 1.09. The relative viability (Calu-6; first compound 0.253 µM) was 0.843, the relative viability (Calu-6; first compound 0.8 µM) was 0.972 and the relative viability (Calu-6; first compound 2.53 µM) was 0.841. It also gave a relative viability (NCI-H1703; first compound 0.08 µM) of 0.275, a relative viability (NCI-H1703; first compound 0.253 µM) of 0.243 and a relative viability (NCI-H1703; first compound 0.8 µM) of 0.258. The relative viability (NCI-H1703; first compound 2.53 µM) was 0.241, the relative viability (NCI-H1437; first compound 0.08 µM) was 0.436 and the relative viability (NCI-H1437; first compound 0.253 µM) was 0.44. The relative viability (NCI-H1437; first compound 0.8 µM) was 0.561, the relative viability (NCI-H1437; first compound 2.53 µM) was 0.234 and the relative viability (NCI-H1299; first compound 0.08 µM) was 0.857. For the same compound, the relative viability (NCI-H1299; first compound 0.253 µM) was 0.701, the relative viability (NCI-H1299; first compound 0.8 µM) was 0.642 and the relative viability (NCI-H1299; first compound 2.53 µM) was 0.511. The relative viability (EBC-1; first compound 0.08 µM) was 0.437, the relative viability (EBC-1; first compound 0.253 µM) was 0.346 and the relative viability (EBC-1; first compound 0.8 µM) was 0.329. For the same compound, the relative viability (EBC-1; first compound 2.53 µM) was 0.261, the relative viability (IA-LM; first compound 0.08 µM) was 0.449 and the relative viability (IA-LM; first compound 0.253 µM) was 0.317. The relative viability (IA-LM; first compound 0.8 µM) was 0.245, the relative viability (IA-LM; first compound 2.53 µM) was 0.17 and the relative viability (HCC-366; first compound 0.08 µM) was 0.164. The relative viability (HCC-366; first compound 0.253 µM) was 0.114, the relative viability (HCC-366; first compound 0.8 µM) was 0.142 and the relative viability (HCC-366; first compound 2.53 µM) was 0.0889.
